In paper PMC10786919, “Design-rules for stapled peptides with in vivo activity and their application to Mdm2/X antagonists” (Nature Communications, 2024):
≈ marks a conversion by molar mass, not a printed value. Positions of bridges follow the written chain, without caps; N, C: chain ends. Non-standard residues stand in square brackets, D forms with d. Residues, ends and D or L forms follow the SMILES beside them. Lys(N3) = [N-]=[N+]=NCCCC[C@H](N)C(=O)O; R8 = C=CCCCCCC[C@@](C)(N)C(=O)O; Cba = N[C@@H](CC1CCC1)C(=O)O; S5 = C=CCCC[C@](C)(N)C(=O)O; βAla = NCCC(=O)O

What was measured:
[1] = EPSA; assay type: physicochemical
[2] = Lactate dehydrogenase (LDH) release assay; assay type: cell-based; settings: LDH: Cytotoxicity assay: EC50
Procedure, shortened: (§1)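 Read-out was lactate dehydrogenase release, reflecting loss of membrane integrity, in reporter-engineered HCT116 cells (p53-responsive β-lactamase) seeded at 8000 cells per well. Final DMSO was 0.5%, and reported values are geometric means from three or more biological repeats.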

[3] = test system: HCT116 cells; experiment: Lactate dehydrogenase (LDH) release assay; assay type: cell-based
Procedure, shortened: as §1

[4] = Solubility assay (kinetic solubility, PBS pH 7); assay type: physicochemical; settings: pH 7, aqueous buffer, kinetic from dmso stock, pH 7, PBS; read-out: Solubility
Procedure, shortened: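 Std: 10 mM stock → 100 µM in ACN/MeOH/DMSO (10:80:10). Sol. [µM] = (sample peak area / std peak area) × std conc.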

[5] = Experimental LogD (partition coefficient); settings: not stated, Partition Coeff LogD
[6] = physchem
[7] = test system: Ca Ski cell line; settings: 72 h
Procedure, shortened: (§2)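 Compound dilution series (10 points, 3-fold, 10 mM top stock in DMSO) tested on overnight-plated Ca Ski cells in RPMI1640/10% FBS and on blasticidin-selected p53RE-bla HCT-116 cells in McCoy's 5A; read-out was CellTiter-Glo 2.0 luminescence after room-temperature equilibration.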

[8] = test system: CellSensor p53RE-bla HCT-116 Cell Line; settings: 72 h
Procedure, shortened: as §2

[9] = in vitro; settings: Nanoclick permeability assay EC50
Procedure, shortened: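 Azido-peptide permeability was read as loss of NanoBRET signal (donor 450 nm, acceptor 610 nm) after adding NanoBret618-azide at 10 μM final.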

| Structure (SMILES) | EPSA ([1]; EPSA) | EC50 [2] | LDH: Cytotoxicity assay: % Effect [3] | solubility kinetic [4] | logD [5] | EPSA [1] | EPSA [6] | EC50 [7] | EC50 [8] | cell entry EC50 [9] |
| --- | --- | --- | --- | --- | --- | --- | --- | --- | --- | --- |
| CC(=O)N[C@@H](CCCNC(=N)N)C(=O)N[C@@H](CCCNC(=N)N)C(=O)NCCCCCC(=O)N[C@@H](CC(C)C)C(=O)N[C@H](C(=O)N[C@@H](Cc1ccccc1)C(=O)N[C@]1(C)CCCCCCC=CCCC[C@@](C)(C(=O)N[C@@H](CO)C(=O)N[C@@H](C)C(=O)N[C@@H](C)C(N)=O)NC(=O)[C@H](CC2CCC2)NC(=O)[C@H](CCC(N)=O)NC(=O)[C@H](C)NC(=O)[C@H](Cc2c[nH]c3ccccc23)NC(=O)[C@H](Cc2ccc(O)cc2)NC(=O)[C@H](CCC(=O)O)NC1=O)[C@@H](C)O [MP-003] | 207 A^2 | 31 µM | 46.5% | 6 µM (≈ 13 µg/mL) | 2.51 | – | – | – | – | – |
| CC(=O)N[C@@H](CCCNC(=N)N)C(=O)N[C@@H](CCCNC(=N)N)C(=O)NCCC(=O)N[C@@H](CCCCN=[N+]=[N-])C(=O)N[C@@H](CC(C)C)C(=O)N[C@H](C(=O)N[C@@H](Cc1ccccc1)C(=O)N[C@]1(C)CCCCCCC=CCCC[C@@](C)(C(=O)N[C@@H](CO)C(=O)N[C@@H](C)C(=O)N[C@@H](C)C(N)=O)NC(=O)[C@H](CC2CCC2)NC(=O)[C@H](CCC(N)=O)NC(=O)[C@H](C)NC(=O)[C@H](Cc2c[nH]c3ccccc23)NC(=O)[C@H](Cc2ccc(O)cc2)NC(=O)[C@H](CCC(=O)O)NC1=O)[C@@H](C)O [MP-006] | 226 A^2 | 26.2 µM | 47.04% | 2 µM (≈ 4.57 µg/mL) | 2.72 | – | – | – | – | – |
| CC(=O)N[C@@H](CCCCN=[N+]=[N-])C(=O)NCC(=O)N[C@@H](CO)C(=O)NCC(=O)N[C@H](C(=O)N[C@@H](CO)C(=O)N[C@@H](Cc1ccccc1)C(=O)N[C@]1(C)CCCCCCC=CCCC[C@@](C)(C(=O)N[C@@H](CCC(=O)O)C(N)=O)NC(=O)[C@H](CC(C)C)NC(=O)[C@H](CC(C)C)NC(=O)[C@H](C)NC(=O)[C@H](Cc2c[nH]c3ccccc23)NC(=O)[C@H](Cc2ccc(O)cc2)NC(=O)[C@H](CCC(=O)O)NC1=O)[C@@H](C)O [MP-010] | – | > 50 µM | 19.63% | 23 µM (≈ 44.8 µg/mL) | 2.07 | Poorly Behaved | – | – | – | – |
| CC(=O)N[C@@H](CC(C)C)C(=O)N[C@H](C(=O)N[C@@H](Cc1ccccc1)C(=O)NC(C)(C)C(=O)N[C@@H](CCC(=O)O)C(=O)N[C@@H](Cc1ccc(O)cc1)C(=O)N[C@H](Cc1c[nH]c2ccccc12)C(=O)N[C@@H](C)C(=O)N[C@@H](CCC(N)=O)C(=O)N[C@@H](CC1CCC1)C(=O)NC(C)(C)C(=O)N[C@@H](CO)C(=O)N[C@@H](C)C(=O)N[C@@H](C)C(N)=O)[C@@H](C)O [MP-254] | 188 A^2 | > 50 µM | – | 92.5 µM (≈ 150 µg/mL) | 2.08 | – | – | – | – | – |
| CC(=O)N[C@@H](CC(C)C)C(=O)N[C@H](C(=O)N[C@@H](Cc1ccccc1)C(=O)NC(C)(C)C(=O)N[C@@H](CCC(=O)O)C(=O)N[C@@H](Cc1ccc(O)cc1)C(=O)N[C@H](Cc1c[nH]c2ccccc12)C(=O)N[C@@H](CCC(N)=O)C(=O)N[C@@H](CC(C)C)C(=O)N[C@@H](CC1CCC1)C(=O)NC(C)(C)C(=O)N[C@@H](CO)C(=O)N[C@@H](C)C(=O)N[C@@H](C)C(N)=O)[C@@H](C)O [MP-256] | 185 A^2 | > 50 µM | – | 91.5 µM (≈ 152 µg/mL) | 2.18 | – | – | – | – | – |
| CC[C@H](C)[C@H](NC(=O)CCNC(=O)[C@H](CCCCN=[N+]=[N-])NC(C)=O)C(=O)N[C@H](C(=O)N[C@@H](Cc1ccccc1)C(=O)N[C@]1(C)CCCCCCC=CCCC[C@@](C)(C(=O)N[C@@H](CO)C(=O)N[C@@H](C)C(=O)N[C@@H](C)C(N)=O)NC(=O)[C@H](CC2CCC2)NC(=O)[C@H](CCC(N)=O)NC(=O)[C@H]([C@@H](C)CC)NC(=O)[C@H](Cc2c[nH]c3ccccc23)NC(=O)[C@H](Cc2ccc(O)cc2)NC(=O)[C@H]([C@@H](C)CC)NC1=O)[C@@H](C)O [MP-491] (Ac-[Lys(N3)][βAla]ITF[R8]IYWIQ[Cba][S5]SAA-NH2; staple 6-13) | – | > 50.6 µM | -1.101% | – | 4.61 | – | 196 A^2 | > 49.8 µM | 1.32 µM | 0.237 µM |
| CC(=O)N[C@@H](CCCCN=[N+]=[N-])C(=O)NCCC(=O)N[C@@H](CC(N)=O)C(=O)N[C@H](C(=O)N[C@@H](Cc1ccccc1)C(=O)N[C@]1(C)CCCCCCC=CCCC[C@@](C)(C(=O)N[C@@H](CO)C(=O)N[C@@H](C)C(=O)N[C@@H](C)C(N)=O)NC(=O)[C@H](CC2CCC2)NC(=O)[C@H](CCC(N)=O)NC(=O)[C@H](CC(N)=O)NC(=O)[C@H](Cc2c[nH]c3ccccc23)NC(=O)[C@H](Cc2ccc(O)cc2)NC(=O)[C@H](CC(N)=O)NC1=O)[C@@H](C)O [MP-497] | – | > 50.6 µM | 3.16% | 5 µM (≈ 10 µg/mL) | 2.49 | – | 202 A^2 | > 49.8 µM | 7.81 µM | 0.271 µM |
| CC(=O)N[C@@H](CCCCN=[N+]=[N-])C(=O)NCCC(=O)N[C@@H](CO)C(=O)N[C@H](C(=O)N[C@@H](Cc1ccccc1)C(=O)N[C@]1(C)CCCCCCC=CCCC[C@@](C)(C(=O)N[C@@H](CO)C(=O)N[C@@H](C)C(=O)N[C@@H](C)C(N)=O)NC(=O)[C@H](CC2CCC2)NC(=O)[C@H](CCC(N)=O)NC(=O)[C@H](CO)NC(=O)[C@H](Cc2c[nH]c3ccccc23)NC(=O)[C@H](Cc2ccc(O)cc2)NC(=O)[C@H](CO)NC1=O)[C@@H](C)O [MP-5493] (Ac-[Lys(N3)][βAla]STF[R8]SYWSQ[Cba][S5]SAA-NH2; staple 6-13) | – | > 50.6 µM | 6.777% | – | 2.69 | – | 204 A^2 | > 49.8 µM | 3.61 µM | 0.0294 µM |
| CC(=O)N[C@@H](CCCCN=[N+]=[N-])C(=O)NCCC(=O)N[C@H](C(=O)N[C@H](C(=O)N[C@@H](Cc1ccccc1)C(=O)N[C@]1(C)CCCCCCC=CCCC[C@@](C)(C(=O)N[C@@H](CO)C(=O)N[C@@H](C)C(=O)N[C@@H](C)C(N)=O)NC(=O)[C@H](CC2CCC2)NC(=O)[C@H](CCC(N)=O)NC(=O)[C@H]([C@@H](C)O)NC(=O)[C@H](Cc2c[nH]c3ccccc23)NC(=O)[C@H](Cc2ccc(O)cc2)NC(=O)[C@H]([C@@H](C)O)NC1=O)[C@@H](C)O)[C@@H](C)O [MP-5494] (Ac-[Lys(N3)][βAla]TTF[R8]TYWTQ[Cba][S5]SAA-NH2; staple 6-13) | – | > 50.6 µM | 2.763% | – | 2.94 | – | 199 A^2 | > 49.8 µM | 0.679 µM | 0.457 µM |
| CC(=O)N[C@@H](CCCCN=[N+]=[N-])C(=O)NCCC(=O)N[C@@H](CCC(N)=O)C(=O)N[C@H](C(=O)N[C@@H](Cc1ccccc1)C(=O)N[C@]1(C)CCCCCCC=CCCC[C@@](C)(C(=O)N[C@@H](CO)C(=O)N[C@@H](C)C(=O)N[C@@H](C)C(N)=O)NC(=O)[C@H](CC2CCC2)NC(=O)[C@H](CCC(N)=O)NC(=O)[C@H](CCC(N)=O)NC(=O)[C@H](Cc2c[nH]c3ccccc23)NC(=O)[C@H](Cc2ccc(O)cc2)NC(=O)[C@H](CCC(N)=O)NC1=O)[C@@H](C)O [MP-5498] (Ac-[Lys(N3)][βAla]QTF[R8]QYWQQ[Cba][S5]SAA-NH2; staple 6-13) | – | > 50.6 µM | 8.092% | 19.7 µM (≈ 40.2 µg/mL) | 2.6 | – | 198 A^2 | 38.3 µM | 6.24 µM | 0.0494 µM |
| CC(=O)N[C@@H](CCCCN=[N+]=[N-])C(=O)NCCC(=O)N[C@@H](CCC(=O)O)C(=O)N[C@H](C(=O)N[C@@H](Cc1ccccc1)C(=O)N[C@]1(C)CCCCCCC=CCCC[C@@](C)(C(=O)N[C@@H](CO)C(=O)N[C@@H](C)C(=O)N[C@@H](C)C(N)=O)NC(=O)[C@H](CC2CCC2)NC(=O)[C@H](CCC(N)=O)NC(=O)[C@H](CCC(=O)O)NC(=O)[C@H](Cc2c[nH]c3ccccc23)NC(=O)[C@H](Cc2ccc(O)cc2)NC(=O)[C@H](CCC(=O)O)NC1=O)[C@@H](C)O [MP-65496] (Ac-[Lys(N3)][βAla]ETF[R8]EYWEQ[Cba][S5]SAA-NH2; staple 6-13) | – | > 50.6 µM | 2.338% | 83.7 µM (≈ 171 µg/mL) | 1.98 | – | 324 A^2 | > 49.8 µM | 1.53 µM | 0.42 µM |
